# The supplement of paper PMC10307832
# What was measured:
# Assay in all cases: relative viability (nuclei count vs DMSO), 5 days (fraction); higher = more cells survive
# [1] = compound: C1=CC2=C(C=C(C(=C2N=C1)O)N=NC3=CC4=C(C=C3)C=C(C=C4)S(=O)(=O)O)S(=O)(=O)O + CS(=O)(=O)CCNCc1ccc(-c2ccc3ncnc(Nc4ccc(OCc5cccc(F)c5)c(Cl)c4)c3c2)o1 [Lapatinib] (partner 2 µM)
# In short: (§1)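 For relative viability, nuclei counts in treated wells were divided by those in vehicle wells. Lung cancer cell lines had been pin-tool dosed in 1536-well plates the day after seeding and cultured for 5 days, then fixed and stained in one step (final 0.05% Triton X-100, 1% formaldehyde, 1 ug/ml Hoechst) and imaged at 4×. Doses were one drug alone or a fixed anchor-drug dose plus five library-drug doses (not always all listed) in √10 steps, and values are duplicate-plate medians.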
# [2] = compound: C1=CC2=C(C=C(C(=C2N=C1)O)N=NC3=CC4=C(C=C3)C=C(C=C4)S(=O)(=O)O)S(=O)(=O)O + CS(=O)(=O)N1CCN(Cc2cc3nc(-c4cccc5[nH]ncc45)nc(N4CCOCC4)c3s2)CC1 [Pictilisib] (partner 1 µM)
# In short: as §1
# [3] = compound: O=C(NC1CCNCC1)c1n[nH]cc1NC(=O)c1c(Cl)cccc1Cl [AT-7519] + CS(=O)(=O)CCNCc1ccc(-c2ccc3ncnc(Nc4ccc(OCc5cccc(F)c5)c(Cl)c4)c3c2)o1 [Lapatinib] (partner 2 µM)
# In short: as §1
# [4] = compound: O=C(NC1CCNCC1)c1n[nH]cc1NC(=O)c1c(Cl)cccc1Cl [AT-7519] + Cc1nc(NC(=O)N2CCC[C@H]2C(N)=O)sc1-c1ccnc(C(C)(C)C(F)(F)F)c1 [Alpelisib] (partner 2 µM)
# In short: as §1
Cell Line,relative viability ([1]; first compound 0.08 µM),relative viability ([1]; first compound 0.253 µM),relative viability ([1]; first compound 0.8 µM),relative viability ([1]; first compound 2.53 µM),relative viability ([1]; first compound 8 µM),relative viability ([2]; first compound 0.08 µM),relative viability ([2]; first compound 0.253 µM),relative viability ([2]; first compound 0.8 µM),relative viability ([2]; first compound 2.53 µM),relative viability ([2]; first compound 8 µM),relative viability ([3]; first compound 0.01 µM),relative viability ([3]; first compound 0.03162 µM),relative viability ([3]; first compound 0.3162 µM),relative viability ([3]; first compound 1 µM),relative viability ([4]; first compound 0.01 µM),relative viability ([4]; first compound 0.03162 µM),relative viability ([4]; first compound 0.3162 µM),relative viability ([4]; first compound 1 µM)
EBC-1,0.202,0.242,0.27,0.2,0.238,0.511,0.333,0.439,0.391,0.499,0.234,0.2,0.213,0.178,0.863,0.835,0.734,0.55
NCI-H1915,1.06,1.01,1,0.883,1.02,0.883,0.97,0.856,0.95,0.952,1.02,0.987,0.863,0.8,1.06,1,1.04,0.732
NCI-H596,1.11,1.02,0.977,1.01,1.01,0.408,0.385,0.377,0.428,0.417,1.05,1.11,1.02,0.767,0.485,0.548,0.191,0.41
NCI-H322M,0.627,0.639,0.528,0.613,0.716,0.505,0.473,0.444,0.442,0.524,0.648,0.606,0.525,0.67,0.823,0.725,0.721,0.824
NCI-H1299,0.959,0.913,0.944,0.956,0.939,0.755,0.823,0.821,0.87,0.623,0.994,0.977,0.975,0.58,1.1,1.08,1.17,1.15
NCI-H2228,0.966,1.29,0.986,1.21,1.06,0.435,0.427,0.289,0.567,0.291,1.02,1.11,0.669,0.481,0.972,0.821,0.584,0.415
IA-LM,0.681,0.718,0.707,0.796,0.793,0.302,0.312,0.283,0.347,0.322,0.911,0.821,0.658,0.0627,0.904,0.617,0.779,0.488
NCI-H647,1.64,0.828,0.974,0.998,0.904,0.357,–,0.436,0.505,0.394,1.02,1,0.937,0.291,1.13,1.07,0.967,0.53
